From patent US8598195B2, “Peptidomimetic compounds” (priority 2008, dated 2013) come the findings set out here.

For the first assay, the target named is Recombinant human PAI-1 (Homo sapiens, UniProt P05121). The experiment in a line: Plasma clot lysis assay for testing of PAI-1 inhibitors. The format is biochemical. Particulars: clot lysis in platelet-poor plasma (50%), PAI-1 10-13 ng/mL, t-PA 34 ng/mL, 37° C.; IC50 = concentration at which a halving of the clot lysis time was reached. How it is done: Plasma Clot Lysis Assay for Testing of PAI-1 Inhibitors
Recombinant human PAI-1, sequence (P05121 24-402): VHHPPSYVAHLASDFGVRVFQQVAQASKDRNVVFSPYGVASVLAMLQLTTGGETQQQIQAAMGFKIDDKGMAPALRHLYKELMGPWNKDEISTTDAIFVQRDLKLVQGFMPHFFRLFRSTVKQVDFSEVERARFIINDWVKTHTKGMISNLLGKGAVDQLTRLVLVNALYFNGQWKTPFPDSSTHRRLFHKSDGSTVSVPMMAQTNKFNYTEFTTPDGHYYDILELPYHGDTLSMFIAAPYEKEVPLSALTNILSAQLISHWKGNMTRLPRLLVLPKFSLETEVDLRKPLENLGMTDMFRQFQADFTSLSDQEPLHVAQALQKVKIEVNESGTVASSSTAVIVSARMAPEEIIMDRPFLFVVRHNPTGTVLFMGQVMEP
CaCl2, p.a. Stock solution 0.1 M in water.
PAI-1 inhibitors dissolved in 100% DMSO.
Clot Lysis in Platelet-Poor Plasma
Blood from healthy fat-fasting volunteers was collected into 0.13 M trisodium citrate, 9 parts blood to 1 part anticoagulant. The tubes were centrifuged at 2000×g, 20 min, at RT. The supernatant, ie, the platelet poor plasma was pooled, aliquoted and frozen at −85° C. until used. At the day of experiment the plasma was thawed in a water bath and temperated to 37° C. All other constituents, except t-PA, were prewarmed to 37° C. To each well on a microtiter plate, 25 μL CaCl2, 25 μL PAI-1 or 25 μL PAI-1 vehicle, 20 μL saline and 5 μL drug or 5 μL vehicle (100% DMSO) were added. Plasma was mixed with cold t-PA solution in the relation 4 parts plasma with 1 part t-PA, just before adding 125 μL of this mixture to each well. The final concentration was 12.5 mM for CaCl2, 10-13 ng/mL for PAI-1, 34 ng/mL for t-PA, and the compounds were tested at a final concentration range 0.1 nM to 0.25 mM. The final plasma concentration was 50%, as a result of the different additives. The plate, covered with a plastic lid, was placed in a Microplate reader (Molecular Devices, US) and gently shaken. The change in turbidity was immediately monitored as a change in absorbance at 405 nm at 37° C. Data points were collected at intervals of 2 min, during a period of 10 h. After finished reading, the absorbance data were transformed into files containing the time and absorbance values for each well. The clot longevity, ie, the time the clot exists, was determined as the time between clot formation, ie, positive Vmax, and clot lysis, ie, negative Vmax. The effect of the drugs, ie, shortening of the longevity for the clot, was expressed as the concentration at which a halving of the clot lysis time was reached, the IC50 (pIC50=−log IC50). Control clot lysis time, set to 100%, was determined in the presence of PAI-1, and the maximal effect, ie, the shortest lysis time that can be reached under defined conditions in this system, in the absence of PAI-1 was set to 0%.
Compounds having a pIC50 higher than 4 were considered as being active.
Turning to `CC(C)Cc1n[nH]c2c(=O)n3c(c(-c4cccc(C(F)(F)F)c4)c12)SC[C@H]3C(=O)O` [Example 21, (7R)-3-isobutyl-9-oxo-4-[3-(trifluoromethyl)phenyl]-1,6,7,9-tetrahydropyrazolo[4,3-d][1,3]thiazolo[3,2-a]pyridine-7-carboxylic acid], the IC50 (in general, the concentration that inhibits the measured activity by half) was 25.1 µM.
As for `CCCc1n[nH]c2c(=O)n3c(c(-c4cccc(C(F)(F)F)c4)c12)SC[C@H]3C(=O)O` [Example 22, (7R)-9-oxo-3-propyl-4-[3-(trifluoromethyl)phenyl]-1,6,7,9-tetrahydropyrazolo[4,3-d][1,3]thiazolo[3,2-a]pyridine-7-carboxylic acid], the IC50 was 20 µM.
As to `CCCCCc1n[nH]c2c(=O)n3c(c(-c4cccc(C(F)(F)F)c4)c12)SC[C@H]3C(=O)O` [Example 23, (7R)-9-oxo-3-pentyl-4-[3-(trifluoromethyl)phenyl]-1,6,7,9-tetrahydropyrazolo[4,3-d][1,3]thiazolo[3,2-a]pyridine-7-carboxylic acid], the IC50 is 15.8 µM.
In the case of `O=C(O)[C@@H]1CSc2c(-c3cccc(C(F)(F)F)c3)c3cn[nH]c3c(=O)n21` [Example 24, (7R)-9-oxo-4-[3-(trifluoromethyl)phenyl]-1,6,7,9-tetrahydropyrazolo[4,3-d][1,3]thiazolo[3,2-a]pyridine-7-carboxylic acid], the IC50 is 25.1 µM.
In the case of `CCCCCCc1n[nH]c2c(=O)n3c(c(-c4cccc(C(F)(F)F)c4)c12)SC[C@H]3C(=O)O` [Example 25, (7R)-3-hexyl-9-oxo-4-[3-(trifluoromethyl)phenyl]-1,6,7,9-tetrahydropyrazolo[4,3-d][1,3]thiazolo[3,2-a]pyridine-7-carboxylic acid], the IC50 is 12.6 µM.
Consider `CCn1nc(CC(C)C)c2c(-c3cccc(C(F)(F)F)c3)c3n(c(=O)c21)[C@H](C(=O)O)CS3` [Example 27, (7R)-1-ethyl-3-isobutyl-9-oxo-4-[3-(trifluoromethyl)phenyl]-1,6,7,9-tetrahydropyrazolo[4,3-d][1,3]thiazolo[3,2-a]pyridine-7-carboxylic acid], for which the IC50 is 79.4 µM.
With `CCCCCCc1n[nH]c2c(=O)n3c(c(-c4ccc(F)c(F)c4)c12)SC[C@H]3C(=O)O` [Example 28, (7R)-4-(3,4-difluorophenyl)-3-hexyl-9-oxo-1,6,7,9-tetrahydropyrazolo[4,3-d][1,3]thiazolo[3,2-a]pyridine-7-carboxylic acid], the IC50 was 50.1 µM.
As for `CCCCCCc1n[nH]c2c(=O)n3c(c(-c4ccc(F)c(F)c4)c12)SC[C@H]3C(=O)NS(=O)(=O)c1ccccc1` [Example 29, (7R)-4-(3,4-difluorophenyl)-3-hexyl-9-oxo-N-(phenylsulfonyl)-1,6,7,9-tetrahydropyrazolo[4,3-d][1,3]thiazolo[3,2-a]pyridine-7-carboxamide], the IC50 is 6.31 µM.

For a further assay, the target named is T1, Aβ 1-40 (Homo sapiens, UniProt P05067).
T1 construct: Lyophilized Aβ 1-40 was dissolved to 500 μM in 4 mM NaOH and divided in two parts
T1 sequence (P05067 672-711): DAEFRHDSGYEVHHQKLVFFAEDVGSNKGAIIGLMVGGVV
Briefly: Aβ aggregation assay for testing of inhibition of amyloid fibril formation (Thioflavin T fluorescence). It counts as biochemical. The following applies: 100 μM Aβ 1-40, 5% DMSO, 37° C., 24 hours; FIG. 1. The procedure:
Effect of test substances on aggregation of Aβ 1-40 was measured by detecting fluorescence of added Thioflavin T (ThT). The ThT-fluorescence of Aβ 1-40 aggregated in the presence of the indicated substances was compared to the ThT-fluorescence of Aβ 1-40 aggregated in the presence of 5% DMSO.
Aβ Aggregation Assay for Testing of Inhibition Amyloid Fibril Formation
Lyophilized Aβ 1-40 was dissolved to 500 μM in 4 mM NaOH and divided in two parts. One part was diluted to 20 μM in PBS (50 mM phosphate buffer pH 7.4 containing 100 mM NaCl) and coated onto an ELISA 96-well plate (Costar) for 1 h at room temperature. The plate was washed in PBS to remove unbound Aβ 1-40. Substances (in DMSO) were diluted with PBS to different concentrations in the Aβ 1-40 coated ELISA plate. The second part of NaOH-solubilized Aβ 1-40 was thereafter added to each well to yield a final concentration of 100 μM Aβ 1-40 and 5% DMSO. The plate was incubated at 37° C. with agitation (600 rpm) for 24 hours to allow aggregation of Aβ 1-40.
The Aβ-substance mix was after aggregation diluted 10 times with 25 μM Thioflavin T (ThT) in PBS. The ThT-fluorescence was detected immediately by excitation at 450 nm and emission at 482 nm. The ThT-fluorescence of Aβ 1-40 aggregated with substances was compared to the ThT-fluorescence of Aβ 1-40 aggregated in the presence of 5% DMSO.
With `CC(C)Cc1n[nH]c2c(=O)n3c(c(-c4cccc(C(F)(F)F)c4)c12)SC[C@H]3C(=O)O` [Example 21, (7R)-3-isobutyl-9-oxo-4-[3-(trifluoromethyl)phenyl]-1,6,7,9-tetrahydropyrazolo[4,3-d][1,3]thiazolo[3,2-a]pyridine-7-carboxylic acid], the “Effect on aggregation of Aβ 1-40 (ThT-fluorescence compared to 5% DMSO)” value was “interfere with the formation of amyloid fibrils”.
Same read-out and setting: the value for `CC(C)CC1=NN=C2C(=O)N3C(SC[C@H]3C(=O)O)C(c3ccccc3)=C12` (stereo partly drawn) [Example 37, (7R)-6,7-dihydro-3-isobutyl-4-phenyl-pyrazolo[4,5-d]thiazolo[3,2-a]pyridine-9-one-7-carboxylic acid] was “interfere with the formation of amyloid fibrils”; that for `COc1ccc(C2=NN=C3C(=O)N4C(SC[C@H]4C(=O)O)C(c4ccccc4)=C32)cc1` (stereo partly drawn) [Example 39, (7R)-6,7-dihydro-3-(4-methoxyphenyl)-4-phenyl-pyrazolo[4,5-d]thiazolo[3,2-a]pyridine-9-one-7-carboxylic acid] was “interfere with the formation of amyloid fibrils”.
